Measurements as given in US10131652B2, “Pyrimidinyloxy benzene derivatives as herbicides” (E. I. DU PONT DE NEMOURS AND COMPANY, priority 2014, dated 2018).
Where two headings read alike, the source gives them in different places.

Experiments:
Assay type in all cases: in vivo
[1] = test system: pigweed (Amaranthus retroflexus); assay: Test B pre-/postemergence plant response; settings: Amaranthus retroflexus, 240 h, read-out: Plant response rating, Pigweed; for pest or weed control at 125 g/ha: 125 g ai/ha; for pest or weed control at 500 g/ha: 500 g ai/ha; for pest or weed control at 500 g/ha / pest or weed control at 1000 g/ha: 0 to 100 scale (0 no effect, 100 complete control); for pest or weed control at 1000 g/ha: 1000 g ai/ha
Summary of the method: (§1)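 Scoring used a 0–100 scale (100 = complete control) by visual comparison with untreated plants after approximately 10 days in the greenhouse. Compounds, in surfactant-containing non-phytotoxic solvent, were sprayed onto soil at planting or onto 2–10 cm seedlings.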

[2] = test system: wheat (Triticum aestivum); assay: Test B pre-/postemergence plant response; settings: Triticum aestivum, 240 h, read-out: Plant response rating, Wheat; for plant injury at 125 g/ha: 125 g ai/ha; for plant injury at 500 g/ha: 500 g ai/ha; for plant injury at 500 g/ha / plant injury at 1000 g/ha: 0 to 100 scale (0 no effect, 100 complete control); for plant injury at 1000 g/ha: 1000 g ai/ha
Summary of the method: as §1

corn (Zea mays) = assay: Test B pre-/postemergence plant response; settings: Zea mays, 240 h; for Corn plant response rating (crop injury, 0 = no effect, 100 = complete kill) at 125 g/ha: 125 g ai/ha; for Corn plant response rating (crop injury, 0 = no effect, 100 = complete kill) at 500 g/ha: 500 g ai/ha; for Corn plant response rating (crop injury, 0 = no effect, 100 = complete kill) at 500 g/ha / Corn plant response rating (crop injury, 0 = no effect, 100 = complete kill) at 1000 g/ha: 0 to 100 scale (0 no effect, 100 complete control); for Corn plant response rating (crop injury, 0 = no effect, 100 = complete kill) at 1000 g/ha: 1000 g ai/ha
Summary of the method: as §1

[3] = test system: barnyardgrass (Echinochloa crus-galli); assay: Test B pre-/postemergence plant response; settings: Echinochloa crus-galli, 240 h, read-out: Plant response rating, Barnyardgrass; for pest or weed control at 125 g/ha: 125 g ai/ha; for pest or weed control at 500 g/ha: 500 g ai/ha; for pest or weed control at 500 g/ha / pest or weed control at 1000 g/ha: 0 to 100 scale (0 no effect, 100 complete control); for pest or weed control at 1000 g/ha: 1000 g ai/ha
Summary of the method: as §1

[4] = test system: giant foxtail (Setaria faberii); assay: Test B pre-/postemergence plant response; settings: Setaria faberi, 240 h, read-out: Plant response rating, Foxtail, Giant; for pest or weed control at 125 g/ha: 125 g ai/ha; for pest or weed control at 500 g/ha: 500 g ai/ha; for pest or weed control at 500 g/ha / pest or weed control at 1000 g/ha: 0 to 100 scale (0 no effect, 100 complete control); for pest or weed control at 1000 g/ha: 1000 g ai/ha
Summary of the method: as §1

rice (Oryza sativa) = assay: Test C flooded paddy test plant response; settings: Oryza sativa; Flood, 250 g ai/ha; scale of 0 to 100 where 0 is no effect and 100 is complete control; 13 to 15 days; read-out: Rice plant response rating
Summary of the method: (§2)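 Water-applied treatment: compounds go directly into floodwater standing 3 cm over the soil of pots holding 2-leaf-stage plants. Depth is kept constant; plants stay in a greenhouse 13 to 15 days before visual comparison with controls on a 0–100 scale.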

[5] = test system: small-flower umbrella sedge (Cyperus difformis); assay: Test C flooded paddy test plant response; settings: Cyperus difformis; Flood, 250 g ai/ha; scale of 0 to 100 where 0 is no effect and 100 is complete control; 13 to 15 days; read-out: Sedge, Umbrella plant response rating
Summary of the method: as §2

[6] = test system: barnyardgrass (Echinochloa crus-galli); assay: Test C flooded paddy test plant response; settings: Echinochloa crus-galli; Flood, 250 g ai/ha; scale of 0 to 100 where 0 is no effect and 100 is complete control; 13 to 15 days; read-out: Barnyardgrass plant response rating
Summary of the method: as §2

[7] = test system: ducksalad (Heteranthera limosa); assay: Test C flooded paddy test plant response; settings: Heteranthera limosa; Flood, 250 g ai/ha; scale of 0 to 100 where 0 is no effect and 100 is complete control; 13 to 15 days; read-out: Ducksalad plant response rating
Summary of the method: as §2

[8] = post-emergence, postemergence, 0 to 100 scale, 0 no effect, 100 complete control
[9] = pre-emergence, Preemergence, 0 to 100 scale where 0 is no effect and 100 is complete control

Row | SMILES | pest or weed control at 125 g/ha [1, 8] [%] | pest or weed control at 500 g/ha ([1]; post-emergence, Postemergence) [%] | pest or weed control at 125 g/ha [1, 9] [%] | pest or weed control at 500 g/ha ([1]; pre-emergence, Preemergence) [%] | plant injury at 125 g/ha [2, 8] [%] | plant injury at 500 g/ha ([2]; post-emergence, Postemergence) [%] | plant injury at 125 g/ha [2, 9] [%] | plant injury at 500 g/ha ([2]; pre-emergence, Preemergence) [%] | Corn plant response rating (crop injury, 0 = no effect, 100 = complete kill) at 125 g/ha (corn (Zea mays); [8]) [%] | Corn plant response rating (crop injury, 0 = no effect, 100 = complete kill) at 500 g/ha (corn (Zea mays); post-emergence, Postemergence) [%] | Corn plant response rating (crop injury, 0 = no effect, 100 = complete kill) at 125 g/ha (corn (Zea mays); [9]) [%] | Corn plant response rating (crop injury, 0 = no effect, 100 = complete kill) at 500 g/ha (corn (Zea mays); pre-emergence, Preemergence) [%] | pest or weed control at 125 g/ha [3, 8] [%] | pest or weed control at 500 g/ha ([3]; post-emergence, Postemergence) [%] | pest or weed control at 125 g/ha [3, 9] [%] | pest or weed control at 500 g/ha ([3]; pre-emergence, Preemergence) [%] | pest or weed control at 125 g/ha [4, 8] [%] | pest or weed control at 500 g/ha ([4]; post-emergence, Postemergence) [%] | pest or weed control at 125 g/ha [4, 9] [%] | pest or weed control at 500 g/ha ([4]; pre-emergence, Preemergence) [%] | also measured
1 | Cc1ccc(Oc2ncc(Cl)cn2)c(-c2ccc(C(F)(F)F)nc2)c1 [Compound 22, 5-chloro-2-[4-methyl-2-[6-(trifluoromethyl)-3-pyridinyl]phenoxy]pyrimidine] | 0 | 0 | 0 | 0 | 0 | 0 | 0 | 0 | 0 | 0 | 0 | 0 | 0 | 0 | 0 | 0 | 0 | 0 | 0 | 0 | plant injury at 250 g/ha (rice (Oryza sativa)): 0%; pest or weed control at 250 g/ha [5]: 0%; pest or weed control at 250 g/ha [6]: 0%; pest or weed control at 250 g/ha [7]: 0%
2 | Clc1ccc(-c2c(Cl)cccc2Oc2ncc(Cl)cn2)nc1 [Compound 23, 5-chloro-2-[3-chloro-2-(5-chloro-2-pyridinyl)phenoxy]pyrimidine] | 70 | 100 | 50 | 90 | 0 | 0 | 0 | 0 | 10 | 20 | 0 | 0 | 0 | 50 | 0 | 30 | 10 | 70 | 20 | 70 | pest or weed control at 1000 g/ha ([1]; post-emergence, Postemergence): 100%; pest or weed control at 1000 g/ha ([1]; pre-emergence, Preemergence): 100%; plant injury at 1000 g/ha ([2]; post-emergence, Postemergence): 0%; plant injury at 1000 g/ha ([2]; pre-emergence, Preemergence): 0%; Corn plant response rating (crop injury, 0 = no effect, 100 = complete kill) at 1000 g/ha (corn (Zea mays); post-emergence, Postemergence): 20%; Corn plant response rating (crop injury, 0 = no effect, 100 = complete kill) at 1000 g/ha (corn (Zea mays); pre-emergence, Preemergence): 0%; pest or weed control at 1000 g/ha ([3]; post-emergence, Postemergence): 50%; pest or weed control at 1000 g/ha ([3]; pre-emergence, Preemergence): 40%; pest or weed control at 1000 g/ha ([4]; post-emergence, Postemergence): 70%; pest or weed control at 1000 g/ha ([4]; pre-emergence, Preemergence): 100%; plant injury at 250 g/ha (rice (Oryza sativa)): 0%; pest or weed control at 250 g/ha [5]: 40%; pest or weed control at 250 g/ha [6]: 0%; pest or weed control at 250 g/ha [7]: 60%
